Values of other authors as cited in patent US20120070594A1, “HYDROGENATED BISPHENOL-A-BASED POLYMERS AS SUBSTITUTES FOR BISPHENOL-A-BASED POLYMERS” (priority 2010, published 2012).

Structure (SMILES) | pKa | LD50 (rat) (rat) [mg per kg]
CC(C)(c1ccc(O)cc1)c1ccc(O)cc1 [BPA, 4,4′-(Propane-2,2-diyl)diphenol, reference compound] | 9.6 | 
CC(C)(C1CCC(O)CC1)C1CCC(O)CC1 (stereo not drawn) [HBPA, 4-[2-(4-hydroxycyclohexyl)propan-2-yl]cyclohexan-1-ol] | 17 | 5660
